Reference: patent US20100273814A1, “((PHENYL)IMIDAZOLYL)METHYLHETEROARYL COMPOUNDS” (priority 2007, published 2010)
Where two headings read alike, the source gives them in different places.

Key:
Format in all cases: cell-based
alpha2A receptor = molecular target: T1, alpha2A receptor (Homo sapiens, UniProt P08913); assay: Receptor Selection and Amplification Technology (RSAT) assay, alpha2A; settings: for Alpha 2A intrinsic activity (efficacy): ratio of maximal effect to that of standard full agonist brimonidine (UK14304), value in brackets
T1 construct: expressed in transfected cells; host or cells: NIH-3T3 cells
T1 sequence (P08913 1-465): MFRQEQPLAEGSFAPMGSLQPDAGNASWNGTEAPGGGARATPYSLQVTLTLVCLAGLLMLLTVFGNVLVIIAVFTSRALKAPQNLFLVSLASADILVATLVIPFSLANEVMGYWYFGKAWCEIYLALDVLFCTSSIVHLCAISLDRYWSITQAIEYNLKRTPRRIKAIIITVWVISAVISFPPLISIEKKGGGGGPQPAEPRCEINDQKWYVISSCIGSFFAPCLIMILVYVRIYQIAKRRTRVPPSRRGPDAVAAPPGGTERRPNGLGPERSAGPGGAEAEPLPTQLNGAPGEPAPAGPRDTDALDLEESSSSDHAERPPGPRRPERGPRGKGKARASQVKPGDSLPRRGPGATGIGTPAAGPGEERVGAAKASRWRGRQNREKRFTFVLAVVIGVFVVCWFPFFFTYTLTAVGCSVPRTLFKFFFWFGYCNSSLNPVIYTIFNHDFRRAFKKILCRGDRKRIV
Procedure: (§1) Receptor Selection and Amplification Technology (RSAT) Assay
(§2) The RSAT assay measures a receptor-mediated loss of contact inhibition that results in selective proliferation of receptor-containing cells in a mixed population of confluent cells. The increase in cell number is assessed with an appropriate transfected marker gene such as β-galactosidase, the activity of which can be easily measured in a 96-well format. Receptors that activate the G protein, Gq, elicit this response. Alpha2 receptors, which normally couple to Gi, activate the RSAT response when coexpressed with a hybrid Gq protein that has a Gi receptor recognition domain, called Gq/i5.
(§3) NIH-3T3 cells are plated at a density of 2×10^6 cells in 15 cm dishes and maintained in Dulbecco's modified Eagle's medium supplemented with 10% calf serum. One day later, cells are cotransfected by calcium phosphate precipitation with mammalian expression plasmids encoding p-SV-β-galactosidase (5-10 μg), receptor (1-2 μg) and G protein (1-2 μg). 40 μg salmon sperm DNA may also be included in the transfection mixture. Fresh media is added on the following day and 1-2 days later, cells are harvested and frozen in 50 assay aliquots. Cells are thawed and […] added to 100 aliquots of various concentrations of drugs in triplicate in 96-well dishes. Incubations continue 72-96 hr at 37° C. After washing with phosphate-buffered saline, β-galactosidase enzyme activity is determined by adding 200 μl of the chromogenic substrate (consisting of 3.5 mM o-nitrophenyl-β-D-galactopyranoside and 0.5% nonidet P-40 in phosphate buffered saline), incubating overnight at 30° C. and measuring optical density at 420 nm. The absorbance is a measure of enzyme activity, which depends on cell number and reflects a receptor-mediated cell proliferation. The efficacy or intrinsic activity is calculated as a ratio of the maximal effect of the drug to the maximal effect of a standard full agonist for each receptor subtype. Brimonidine, also called UK14304, the chemical structure of which is shown below, is used as the standard agonist for the alpha2A, alpha2B and alpha2C receptors. The EC50 is the concentration at which the drug effect is half of its maximal effect.
(§4) EC50 values are nanomolar. ND stands for “not determinable” at concentrations less than 10 micromolar. IA stands for “intrinsic activity.”

alpha2B receptor = molecular target: T2, alpha2B receptor (Homo sapiens, UniProt P18089); assay: Receptor Selection and Amplification Technology (RSAT) assay, alpha2B; settings: for Alpha 2B intrinsic activity (efficacy): ratio of maximal effect to that of standard full agonist brimonidine (UK14304), value in brackets
T2 construct: expressed in transfected cells; host or cells: NIH-3T3 cells
T2 sequence (P18089 1-450): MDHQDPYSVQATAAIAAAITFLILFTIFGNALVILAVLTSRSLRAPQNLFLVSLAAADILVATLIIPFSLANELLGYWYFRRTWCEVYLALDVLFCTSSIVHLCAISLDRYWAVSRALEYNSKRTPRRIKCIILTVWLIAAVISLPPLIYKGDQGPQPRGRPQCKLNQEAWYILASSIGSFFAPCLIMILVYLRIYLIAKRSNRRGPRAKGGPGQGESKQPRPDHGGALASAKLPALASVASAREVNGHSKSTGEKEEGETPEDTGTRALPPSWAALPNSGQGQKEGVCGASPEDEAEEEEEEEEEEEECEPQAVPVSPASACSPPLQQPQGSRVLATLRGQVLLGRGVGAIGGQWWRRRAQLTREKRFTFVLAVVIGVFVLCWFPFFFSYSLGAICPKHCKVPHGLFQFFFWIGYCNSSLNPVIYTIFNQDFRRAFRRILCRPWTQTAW
Procedure: as §1, §2, §3, §4

alpha2C receptor = molecular target: T3, alpha2C receptor (Homo sapiens, UniProt P18825); assay: Receptor Selection and Amplification Technology (RSAT) assay, alpha2C; settings: for Alpha 2C intrinsic activity (efficacy): ratio of maximal effect to that of standard full agonist brimonidine (UK14304), value in brackets
T3 construct: expressed in transfected cells; host or cells: NIH-3T3 cells
T3 sequence (P18825 1-462): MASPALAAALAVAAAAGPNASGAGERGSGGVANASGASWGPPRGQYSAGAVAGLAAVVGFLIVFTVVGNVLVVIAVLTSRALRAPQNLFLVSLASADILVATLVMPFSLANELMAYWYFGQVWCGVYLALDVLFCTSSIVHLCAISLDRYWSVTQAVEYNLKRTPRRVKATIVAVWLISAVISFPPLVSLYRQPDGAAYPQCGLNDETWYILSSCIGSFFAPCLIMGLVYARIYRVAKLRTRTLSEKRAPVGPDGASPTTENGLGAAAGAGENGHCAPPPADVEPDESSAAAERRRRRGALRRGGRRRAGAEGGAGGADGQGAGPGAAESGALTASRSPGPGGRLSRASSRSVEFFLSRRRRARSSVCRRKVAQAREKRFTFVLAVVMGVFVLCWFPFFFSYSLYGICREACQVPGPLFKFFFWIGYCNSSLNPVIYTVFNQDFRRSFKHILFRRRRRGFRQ
Procedure: as §1, §2, §3, §4

[1] = RSAT, transfected NIH-3T3 cells, value outside brackets, read-out: Alpha 2A EC50 (potency)
[2] = RSAT, transfected NIH-3T3 cells, value outside brackets, read-out: Alpha 2B EC50 (potency)
[3] = RSAT, transfected NIH-3T3 cells, value outside brackets, read-out: Alpha 2C EC50 (potency)

Row | SMILES | EC50 (alpha2A receptor) [µM] | Alpha 2A intrinsic activity (efficacy) (alpha2A receptor; RSAT) | EC50 (alpha2B receptor) [µM] | Alpha 2B intrinsic activity (efficacy) (alpha2B receptor; RSAT) | EC50 (alpha2C receptor) [µM] | Alpha 2C intrinsic activity (efficacy) (alpha2C receptor; RSAT) | EC50 (alpha2A receptor; [1]) [µM] | EC50 (alpha2B receptor; [2]) [µM] | EC50 (alpha2C receptor; [3]) [µM]
1 | Clc1cccc(C(c2ccccn2)c2c[nH]cn2)c1Cl (stereo not shown) [2-((2,3-dichlorophenyl)(1H-imidazol-5-yl)methyl)pyridine] | > 10 | 0.21 | 0.0087 | .85 | 0.784 | 0.39 | – | – | –
2 | Fc1ccccc1C(c1cccnc1)c1c[nH]cn1 (stereo not shown) [3-((2-fluorophenyl)(1H-imidazol-5-yl)methyl)pyridine] | > 10 | 0.7 | 0.251 | 0.60 | 2.48 | 0.55 | – | – | –
3 | Cc1cccc(C(c2ccccn2)c2c[nH]cn2)c1C (stereo not shown) [2-((2,3-dimethylphenyl)(1H-imidazol-4-yl)methyl)pyridine] | – | 0.39 | – | 1.22 | – | 0.64 | 1.93 | 0.00092 | 0.356
4 | Clc1cccc(C(c2ccncc2)c2c[nH]cn2)c1Cl (stereo not shown) [4-((2,3-dichlorophenyl)(1H-imidazol-5-yl)methyl)pyridine] | – | 0.18 | – | 1.31 | – | 0.72 | > 10 | 0.0032 | 0.097
5 | Cc1c(Cl)cccc1C(c1ccncc1)c1c[nH]cn1 (stereo not shown) [4-((3-chloro-2-methylphenyl)(1H-imidazol-5-yl)methyl)pyridine] | – | 0.11 | – | 1.10 | – | 0.46 | > 10 | 0.0103 | 0.083
6 | c1ccc(C(c2ccccn2)c2c[nH]cn2)cc1 (stereo not shown) [2-((phenyl)(1H-imidazol-5-yl)methyl)pyridine] | – | 0.04 | – | 0.87 | – | 0.09 | > 10 | 0.469 | > 10
7 | Cc1cccc(C(c2cccnc2)c2c[nH]cn2)c1C (stereo not shown) [3-((2,3-dimethylphenyl)(1H-imidazol-5-yl)methyl)pyridine] | – | 0.19 | – | 1.25 | – | 0.55 | > 10 | 0.00033 | 0.014
8 | Fc1cccc(C(c2cccnc2)c2c[nH]cn2)c1F (stereo not shown) [3-((2,3-difluorophenyl)(1H-imidazol-5-yl)methyl)pyridine] | – | 0.05 | – | 0.93 | – | 0.85 | > 10 | 0.068 | 0.656
9 | Fc1cccc(C(c2ccccn2)c2c[nH]cn2)c1F (stereo not shown) [2-((2,3-difluorophenyl)(1H-imidazol-5-yl)methyl)pyridine] | – | 0.05 | – | 1.08 | – | 0.16 | > 10 | 0.405 | > 10
10 | Cc1c(F)cccc1C(c1ccccn1)c1c[nH]cn1 (stereo not shown) [2-((3-fluoro-2-methylphenyl)(1H-imidazol-5-yl)methyl)pyridine] | – | 0.04 | – | 1.07 | – | 0.38 | > 10 | 0.036 | 0.44
11 | Cc1c(F)cccc1C(c1ccncc1)c1c[nH]cn1 (stereo not shown) [4-((3-fluoro-2-methylphenyl)(1H-imidazol-5-yl)methyl)pyridine] | – | 0.03 | – | 1.17 | – | 0.27 | > 10 | 0.072 | > 10
12 | Fc1c(Cl)cccc1C(c1ccncc1)c1cnc[nH]1 (stereo not shown) [4-((3-chloro-2-fluorophenyl)(1H-imidazol-5-yl)methyl)pyridine] | – | 0.09 | – | 1.02 | – | 0.60 | > 10 | 0.04 | 0.34
13 | Clc1cccc(C(c2cccnc2)c2c[nH]cn2)c1Cl (stereo not shown) | – | 0.37 | – | 1.15 | – | 0.87 | 0.605 | 0.00162 | 0.112
14 | Fc1cccc(C(c2cccnc2)c2c[nH]cn2)c1 (stereo not shown) [3-((3-fluorophenyl)(1H-imidazol-5-yl)methyl)pyridine] | – | 0.05 | – | 1.01 | – | 0.17 | > 10 | 0.222 | 3.64
15 | Fc1c(Cl)cccc1C(c1c[nH]cn1)c1cccs1 (stereo not shown) | – | 0.21 | 0.046 | 0.93 | – | 0.28 | – | – | –
16 | Cc1c(Cl)cccc1C(c1ccccn1)c1c[nH]cn1 (stereo not shown) | – | 0.12 | – | 1.39 | – | 0.53 | > 10 | 0.0078 | 0.495
17 | Fc1cccc(C(c2ccncc2)c2c[nH]cn2)c1 (stereo not shown) [4-((3-fluorophenyl)(1H-imidazol-5-yl)methyl)pyridine] | – | 0.04 | – | 0.93 | – | 0.23 | > 10 | 0.562 | > 10
18 | c1ccc(C(c2ccncc2)c2c[nH]cn2)cc1 (stereo not shown) [4-((phenyl)(1H-imidazol-5-yl)methyl)pyridine] | – | 0.10 | – | 0.69 | – | 0.14 | > 10 | 0.309 | > 10
19 | Fc1c(C(c2cccnc2)c2c[nH]cn2)cccc1C(F)(F)F (stereo not shown) [3-((2-fluoro-3-(trifluoromethyl)phenyl)(1H-imidazol-5-yl)methyl)pyridine] | – | 0.23 | – | 1.24 | – | 0.42 | > 10 | 0.0052 | 0.032
